From patent publication US20250090626A1, “NEW PEPTIDE AND USES THEREOF” (Neo Cremar Co., Ltd., priority 2021, published 2025)
No end group written: not given here.

Tested on: 3T3L1 cells
Assay: Expression of FMOD, MSTN and lipogenesis-related mRNAs and proteins in 3T3L1 cells
Assay type: cell-based, mouse
Settings: 3T3L1, Ac-MIF1 treated vs untreated; FIG. 13C
Description: After adding 1 ml of TRIzol™ reagent, the cells were crushed using a sonicator. After centrifugation of the crushed sample (12,000 rpm, 10 min, 4° C.), the supernatant was transferred to a new tube, added with 200 μl of chloroform, and left at room temperature for 10 minutes. After 10 minutes, centrifugation (12,000 rpm, 10 min, 4° C.) was performed, yielded a transparent supernatant. Next, 500 μl of isopropanol was added, the mixture was left for 10 minutes, and centrifugation was performed to obtain RNA pellets. After washing by adding 70% ethanol (distilled water treated with ethanol+diethylpyrocarbonate (hereinafter referred to as DEPC)) to the RNA pellets, complete removal and drying were followed. The dried transparent RNA was added with DEPC-treated distilled water and then stored at −80° C. Total RNA volume was measured by nanodrop, and the 18s and 28s bands were detected in 1.2% agarose gel. cDNA was synthesized with 2 μg of total RNA, random hexamer primers, and reverse transcriptase (25° C.: 10 min, 37° C.: 120 min, 85° C.: 5 min).
Real-time PCR (RT-PCR) was performed for detecting gene expression. For observation of real-time gene expression, gene expression was analyzed using the Power SYBR Green PCR Master Mix, which includes fluorescent materials of SYBR green (7500 Real-time PCR system). The PCR primer was designed with Primer 3 software (http://frodo.wi.mit.edu) according to the nucleotide sequence secured from NCBI GenBank. PCR was performed 40 times at 95° C. for 10 minutes, again at 95° C. for 33 seconds, at gene primer temperature (tm) for 33 seconds, and at 72° C. for 33 seconds. Gene expression values were analyzed through the analysis of c(t) values obtained through real-time PCR analysis (fold change 2-^ΔΔCt formula). Setting the gene expression value of the untreated cells to 1, the gene expression value of the treated cells was calculated. In the analysis of gene c(t) values, normalization was conducted with the glyceraldehyde-3-phosphate dehydrogenase (GAPDH).
(2) The medium of cultured 3T3L1 cells was removed and washed with PBS. After adding LIPA buffer and protease inhibitor to the washed cells, the proteins included in the supernatant were collected after centrifugation at 12000 rpm for 10 minutes. 40 μg of the extracted proteins were subjected to electrophoresis in 8 to 10% acrylamide gel and then transferred to a polyvinylidene fluoride (PVDF) membrane (Milipore). These were blocked with 3% skim milk or bovine serum albumin (BSA) at room temperature for 1 hour. Afterwards, primary antibody diluted in 1% skim milk or BSA (MSTN; 1:1000, 13-actin; 1:1000, CD36; 1:500, CD163; 1:500, FMOD; 1:400, and PPARγ; 1:500) was added and reacted at 4° C. for over 16 hours. After 16 hours, they were washed three times with TBST (Tris-buffered saline with Tween 20) and reacted with secondary antibody conjugated with horseradish peroxidase (HRP) at room temperature for 1 hour. It was washed three times with TBST and developed after adding Super Signal West Pico Chemiluminescent Substrate.

Ac-VDFEAFWDWG [Ac-MIF1, MIF1 with N-terminus acetylated, 10 mer]
decreased: CD36 expression (mRNA and protein) | CD163 expression (mRNA and protein) | FMOD expression (mRNA and protein) | MSTN expression (mRNA and protein) | PPARγ expression (mRNA and protein)
